Tests used:
Assay type in all cases: in vivo
[1] = tested on: blackgrass (Alopecurus myosuroides); assay: Test B postemergence
How it was run: (§1)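 Greenhouse test: chemicals are formulated in a surfactant-containing non-phytotoxic solvent and applied either preemergence to planted seeds or postemergence to plants 2 to 18 cm tall. Response is rated visually versus controls after 13 to 15 days, 0 meaning no effect and 100 complete control.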

[2] = tested on: barnyardgrass (Echinochloa crus-galli); assay: Test B postemergence
How it was run: as §1

wild oat (Avena fatua) = assay: Test B postemergence
How it was run: as §1

[3] = tested on: lambsquarters (Chenopodium album); assay: Test B postemergence
How it was run: as §1

[4] = tested on: Surinam grass (Brachiaria decumbens); assay: Test B postemergence
How it was run: as §1

corn (Zea mays) [5] = assay: Test B postemergence
How it was run: as §1

[6] = tested on: velvetleaf (Abutilon theophrasti); assay: Test B postemergence
How it was run: as §1

[7] = tested on: cocklebur (Xanthium strumarium); assay: Test B postemergence
How it was run: as §1

[8] = tested on: crabgrass (Digitaria sanguinalis); assay: Test B postemergence
How it was run: as §1

[9] = tested on: pigweed (Amaranthus retroflexus); assay: Test B postemergence
How it was run: as §1

[10] = tested on: morning glory (Ipomoea hederacea); assay: Test B postemergence
How it was run: as §1

[11] = tested on: wheat (Triticum aestivum); assay: Test B postemergence
How it was run: as §1

[12] = tested on: giant foxtail (Setaria faberii); assay: Test B postemergence
How it was run: as §1

[13] = tested on: barnyardgrass (Echinochloa crus-galli); assay: Test B flooded paddy test; settings: Rate 1000 g/ha, scale of 0 to 100 where 0 is no effect and 100 is complete control, visually evaluated after 13 to 15 days
Description: (§2) At the same time, plants selected from these crop and weed species and also blackgrass (Alopecurus myosuroides), wheat (Triticum aestivum) and wild oat (Avena fatua) were treated with postemergence applications of test chemicals formulated in the same manner. Plants ranged in height from 2 to 18 cm (1- to 4-leaf stage) for postemergence treatments. Plant species in the flooded paddy test consisted of rice (Oryza saliva), smallflower flatsedge (Cyperus difformis), duck salad (Heteranthera limosa) and barnyardgrass (Echinochloa crus-galli) grown to the 2-leaf stage for testing. Treated plants and controls were maintained in a greenhouse for 13 to 15 days, after which time all species were compared to controls and visually evaluated. Plant response ratings, summarized in Table B, are based on a scale of 0 to 100 where 0 is no effect and 100 is complete control. A dash (-) response means no test result.

[14] = tested on: duck salad (Heteranthera limosa); assay: Test B flooded paddy test; settings: Rate 1000 g/ha, scale of 0 to 100 where 0 is no effect and 100 is complete control, visually evaluated after 13 to 15 days
Description: as §2

[15] = tested on: smallflower flatsedge (Cyperus difformis); assay: Test B flooded paddy test; settings: Rate 1000 g/ha, scale of 0 to 100 where 0 is no effect and 100 is complete control, visually evaluated after 13 to 15 days
Description: as §2

rice (Oryza saliva) [16] = assay: Test B flooded paddy test; settings: Rate 1000 g/ha, scale of 0 to 100 where 0 is no effect and 100 is complete control, visually evaluated after 13 to 15 days
Description: as §2

[17] = tested on: barnyardgrass (Echinochloa crus-galli); assay: Test B preemergence
How it was run: as §1

[18] = tested on: lambsquarters (Chenopodium album); assay: Test B preemergence
How it was run: as §1

[19] = tested on: Surinam grass (Brachiaria decumbens); assay: Test B preemergence
How it was run: as §1

corn (Zea mays) [20] = assay: Test B preemergence
How it was run: as §1

[21] = tested on: velvetleaf (Abutilon theophrasti); assay: Test B preemergence
How it was run: as §1

[22] = tested on: cocklebur (Xanthium strumarium); assay: Test B preemergence
How it was run: as §1

[23] = tested on: crabgrass (Digitaria sanguinalis); assay: Test B preemergence
How it was run: as §1

[24] = tested on: pigweed (Amaranthus retroflexus); assay: Test B preemergence
How it was run: as §1

[25] = tested on: morning glory (Ipomoea hederacea); assay: Test B preemergence
How it was run: as §1

rice (Oryza saliva) [26] = assay: Test B preemergence
How it was run: as §1

[27] = tested on: giant foxtail (Setaria faberii); assay: Test B preemergence
How it was run: as §1

[28] = Rate 125 g/ha, scale 0 (no effect) to 100 (complete control), 13 to 15 days
[29] = Rate 500 g/ha, scale 0 to 100, 0 is no effect, 100 is complete control, 13 to 15 days
[30] = Preemergence, Rate 500 g/ha, scale 0 to 100, 0 no effect, 100 complete control
[31] = preemergence, Rate 125 g/ha, scale of 0 to 100 where 0 is no effect and 100 is complete control, 13 to 15 days
[32] = Rate 125 g/ha, scale 0 to 100, 0 no effect, 100 complete control
[33] = Rate 500 g/ha, scale 0 (no effect) to 100 (complete control), 13 to 15 days

CC(C)(C)c1ccn(C2CCN(c3cccc(OC(=O)C(F)(F)F)c3)C2=O)n1 (stereo not shown) [Compound 94]
Plant response rating, Blackgrass [1, 28]: 0
Plant response rating, Blackgrass [1, 29]: 0
Plant response rating, Barnyardgrass [2, 28]: 0
Plant response rating, Barnyardgrass [2, 29]: 0
Plant response rating, Wild Oat (wild oat (Avena fatua); [29]): 0
Plant response rating, Lambsquarters [3, 29]: 20
Plant response rating, Surinam grass [4, 28]: 0
Plant response rating, Surinam grass [4, 29]: 0
Plant response rating, Corn (corn (Zea mays) [5]; [28]): 0
Plant response rating, Corn (corn (Zea mays) [5]; [29]): 0
Plant response rating, Velvetleaf [6, 29]: 0
Plant response rating, Cocklebur [7, 28]: 0
Plant response rating, Cocklebur [7, 29]: 0
Plant response rating, Crabgrass [8, 28]: 0
Plant response rating, Crabgrass [8, 29]: 0
Plant response rating, Pigweed [9, 29]: 10
Plant response rating, Morningglory [10, 29]: 0
Plant response rating, Wheat [11, 29]: 0
Plant response rating, Foxtail, Giant [12, 28]: 0
Plant response rating, Foxtail, Giant [12, 29]: 0
Plant response rating, Barnyardgrass [13]: 0
Plant response rating, Ducksalad [14]: 0
Plant response rating, Flatsedge [15]: 0
Plant response rating, Rice (rice (Oryza saliva) [16]): 0
Plant response rating, Barnyardgrass [17, 30]: 0
Plant response rating, Barnyardgrass [17, 31]: 0
Plant response rating, Lambsquarters [18, 30]: 100
Plant response rating, Lambsquarters [18, 31]: 0
Plant response rating, Surinam grass [19, 30]: 0
Plant response rating, Surinam grass [19, 31]: 0
Plant response rating, Corn (corn (Zea mays) [20]; [30]): 0
Plant response rating, Corn (corn (Zea mays) [20]; [31]): 0
Plant response rating, Velvetleaf [21, 30]: 70
Plant response rating, Velvetleaf [21, 31]: 0
Plant response rating, Cocklebur [22, 30]: 0
Plant response rating, Cocklebur [22, 31]: 0
Plant response rating, Crabgrass [23, 30]: 30
Plant response rating, Crabgrass [23, 31]: 0
Plant response rating, Pigweed [24, 30]: 0
Plant response rating, Pigweed [24, 31]: 0
Plant response rating, Morningglory [25, 30]: 0
Plant response rating, Morningglory [25, 31]: 0
Plant response rating, Rice (rice (Oryza saliva) [26]; [30]): 20
Plant response rating, Rice (rice (Oryza saliva) [26]; [31]): 0
Plant response rating, Foxtail, Giant [27, 30]: 0
Plant response rating, Foxtail, Giant [27, 31]: 0

Cc1ccnc(N2CCC(n3ccc(C(C)(C)C)n3)C2=O)c1 (stereo not shown) [Compound 139]
Plant response rating, Blackgrass [1, 32]: 0
Plant response rating, Blackgrass [1, 33]: 0
Plant response rating, Barnyardgrass [2, 32]: 0
Plant response rating, Barnyardgrass [2, 33]: 0
Plant response rating, Wild Oat (wild oat (Avena fatua); [32]): 0
Plant response rating, Wild Oat (wild oat (Avena fatua); [33]): 0
Plant response rating, Lambsquarters [3, 32]: 0
Plant response rating, Lambsquarters [3, 33]: 0
Plant response rating, Surinam grass [4, 32]: 0
Plant response rating, Surinam grass [4, 33]: 0
Plant response rating, Corn (corn (Zea mays) [5]; [32]): 0
Plant response rating, Corn (corn (Zea mays) [5]; [33]): 0
Plant response rating, Velvetleaf [6, 32]: 0
Plant response rating, Velvetleaf [6, 33]: 0
Plant response rating, Cocklebur [7, 32]: 0
Plant response rating, Cocklebur [7, 33]: 0
Plant response rating, Crabgrass [8, 32]: 0
Plant response rating, Crabgrass [8, 33]: 0
Plant response rating, Pigweed [9, 32]: 0
Plant response rating, Pigweed [9, 33]: 0
Plant response rating, Morningglory [10, 32]: 0
Plant response rating, Morningglory [10, 33]: 0
Plant response rating, Wheat [11, 32]: 0
Plant response rating, Wheat [11, 33]: 0
Plant response rating, Foxtail, Giant [12, 32]: 0
Plant response rating, Foxtail, Giant [12, 33]: 0
Plant response rating, Barnyardgrass [13]: 20
Plant response rating, Ducksalad [14]: 0
Plant response rating, Flatsedge [15]: 70
Plant response rating, Rice (rice (Oryza saliva) [16]): 0
Plant response rating, Barnyardgrass [17, 30]: 0
Plant response rating, Barnyardgrass [17, 31]: 0
Plant response rating, Lambsquarters [18, 30]: 100
Plant response rating, Lambsquarters [18, 31]: 100
Plant response rating, Surinam grass [19, 30]: 0
Plant response rating, Surinam grass [19, 31]: 0
Plant response rating, Corn (corn (Zea mays) [20]; [30]): 0
Plant response rating, Corn (corn (Zea mays) [20]; [31]): 0
Plant response rating, Velvetleaf [21, 30]: 0
Plant response rating, Velvetleaf [21, 31]: 0
Plant response rating, Cocklebur [22, 30]: 0
Plant response rating, Crabgrass [23, 30]: 0
Plant response rating, Crabgrass [23, 31]: 0
Plant response rating, Pigweed [24, 30]: 100
Plant response rating, Pigweed [24, 31]: 0
Plant response rating, Morningglory [25, 30]: 0
Plant response rating, Morningglory [25, 31]: 0
Plant response rating, Rice (rice (Oryza saliva) [26]; [30]): 0
Plant response rating, Rice (rice (Oryza saliva) [26]; [31]): 0
Plant response rating, Foxtail, Giant [27, 30]: 0
Plant response rating, Foxtail, Giant [27, 31]: 0
